The target in series [1] is farnesyl protein transferase (FPTase) (Homo sapiens, UniProt P49354+P49356). As to the kind of experiment: In vitro assay for inhibition of farnesyl protein transferase. It counts as biochemical. The settings on record: essentially as described in WO 98/40383, pages 33-34, read-out: IC50 FPTase inhibitory activity. The protocol: In Vitro Assay for Inhibition of Farnesyl Protein Transferase
An in vitro assay for inhibition of farnesyl protein transferase was performed essentially as described in WO 98/40383, pages 33-34.

The text below walks through data of US8318753B2, “Farnesyl transferase inhibiting 1,2-annelated quinoline enantiomer” (Janssen Pharmaceutica NV, priority 2000, dated 2012).

As for `Cn1cncc1C(N)(c1ccc(Cl)cc1)c1ccc2c(c1)c(-c1cccc(Cl)c1)nc1nnnn12` (racemic) [parent enantiomeric mixture, (±)-5-(3-chlorophenyl)-α-(4-chlorophenyl)-α-(1-methyl-1H-imidazol-5-yl)tetrazolo[1,5-a]quinazoline-7-methanamine, reference compound], the IC50 in series [1] turned out to be 1.1 nM.
For the compound `Cn1cncc1C(N)(c1ccc(Cl)cc1)c1ccc2c(c1)c(-c1cccc(Cl)c1)nc1nnnn12` (single isomer, unassigned; (-)) [(−) enantiomer, (−)-5-(3-chlorophenyl)-α-(4-chlorophenyl)-α-(1-methyl-1H-imidazol-5-yl)tetrazolo[1,5-a]quinazoline-7-methanamine], the melting point was in the range of 178 to 180 °C. In series [1], the IC50 stood at 0.7 nM.

The term IC50 denotes the concentration needed to halve the response being measured. For orientation: melting point means the temperature of the solid-liquid transition.
